Test results as given in patent publication US6624182B1, “Hydroxyphenylvinylthiazoles” (Ciba Specialty Chemicals Corporation, priority 1999, dated 2003).

Legend:
Assay in all cases: Determination of the minimum inhibitory concentration (MIC value) in microtitre plates
C. albicans = type: cell-based, Candida albicans ATCC 10231; settings: optical density at 620 nm, 48 hours at 37° C., MIC = ≦20% growth; tested at 100; 10 and 1 ppm (approximate values); (2), (3), (4) at 120; 60; 30; 15; 7.5; 3.75 ppm
How it was run: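 Candida albicans ATCC 10231 grown overnight in CASO broth, adjusted to 1–5×10^6 CFU/ml then diluted 1:100, was exposed to 1:2 serial dilutions of compound (DMSO) for 48 h at 37 °C. Growth was read as OD620; MIC was the concentration giving ≤20% growth versus control, tested in duplicate.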

S. aureus = type: cell-based; settings: optical density at 620 nm, 48 hours at 37° C., MIC = ≦20% growth; tested at 100; 10 and 1 ppm (approximate values); (2), (3), (4) at 120; 60; 30; 15; 7.5; 3.75 ppm
How it was run: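 DMSO-dissolved compounds were tested in 1:2 serial dilutions against bacteria in CASO bouillon, from inocula of 1−5×10^6 KBE/ml diluted 1:100. Growth was read by OD 620 nm after 48 h at 37 °C. MIC was the lowest concentration giving ≦20% growth versus the growth control, tested in duplicate.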

P. aeruginosa = type: cell-based, Pseudomonas aeruginosa CIP A-22; settings: optical density at 620 nm, 48 hours at 37° C., MIC = ≦20% growth; tested at 100; 10 and 1 ppm (approximate values); (2), (3), (4) at 120; 60; 30; 15; 7.5; 3.75 ppm
How it was run: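 P. aeruginosa CIP A-22 at 1−5×10^6 KBE/ml, diluted 1:100 in CASO bouillon, exposed to 1:2 serial dilutions of DMSO-dissolved compound for 48 h at 37 °C, in duplicate. Growth read by OD 620 nm; MIC is the lowest concentration giving ≤20% growth relative to growth control.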

E. coli = type: cell-based, Escherichia coli NCTC 8196; settings: optical density at 620 nm, 48 hours at 37° C., MIC = ≦20% growth; tested at 100; 10 and 1 ppm (approximate values); (2), (3), (4) at 120; 60; 30; 15; 7.5; 3.75 ppm
How it was run: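 E. coli NCTC 8196 grown overnight in CASO bouillon, adjusted to 1−5×10^6 KBE/ml, diluted 1:100 and added to DMSO-dissolved compounds in 1:2 dilution series. Incubated 48 h at 37° C; growth read as OD 620 nm. MIC is the lowest concentration giving ≤20% growth versus growth control; duplicates.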

A. niger = type: cell-based, Aspergillus niger ATCC 6275; settings: optical density at 620 nm, 5 days at 28° C., MIC = ≦20% growth; tested at 100; 10 and 1 ppm (approximate values); (2), (3), (4) at 120; 60; 30; 15; 7.5; 3.75 ppm
How it was run: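 A. niger ATCC 6275 spores, adjusted to 1−5×10^6 KBE/ml and diluted 1:100 in Sabouraud 2% glucose bouillon, were exposed to 2-fold dilutions of DMSO-dissolved compounds for 5 days at 28°C. Growth read as OD at 620 nm. MIC is the lowest concentration giving ≤20% growth versus growth control, tested in duplicate.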

Oc1cc(OCc2ccccc2)ccc1/C=C/c1nc(-c2ccccc2)cs1 [Compound of formula (60)]
>100 ppm: MIC values in ppm C. albicans (C. albicans) | MIC values in ppm S. aureus (S. aureus) | MIC values in ppm P. aeruginosa (P. aeruginosa) | MIC values in ppm E. coli (E. coli) | MIC values in ppm A. niger (A. niger)

COc1cc(/C=C/c2nc(C(C)(C)C)cs2)cc(O)c1OC [Compound of formula (22)]
>100 ppm: MIC values in ppm C. albicans (C. albicans) | MIC values in ppm S. aureus (S. aureus) | MIC values in ppm P. aeruginosa (P. aeruginosa) | MIC values in ppm E. coli (E. coli) | MIC values in ppm A. niger (A. niger)

CCc1csc(/C=C/c2ccc(O)cc2)n1 [Compound of formula (39)]
>100 ppm: MIC values in ppm C. albicans (C. albicans) | MIC values in ppm S. aureus (S. aureus) | MIC values in ppm P. aeruginosa (P. aeruginosa) | MIC values in ppm E. coli (E. coli) | MIC values in ppm A. niger (A. niger)

CCc1csc(/C=C/c2cccc(O)c2)n1 [Compound of formula (40)]
>100 ppm: MIC values in ppm C. albicans (C. albicans) | MIC values in ppm S. aureus (S. aureus) | MIC values in ppm P. aeruginosa (P. aeruginosa) | MIC values in ppm E. coli (E. coli) | MIC values in ppm A. niger (A. niger)

CCc1csc(/C=C/c2cc(C)c(O)c(C)c2)n1 [Compound of formula (47)]
>100 ppm: MIC values in ppm C. albicans (C. albicans) | MIC values in ppm S. aureus (S. aureus) | MIC values in ppm P. aeruginosa (P. aeruginosa) | MIC values in ppm E. coli (E. coli) | MIC values in ppm A. niger (A. niger)

COc1ccc(/C=C/c2nc(-c3ccc(N4CCCC4)cc3)cs2)c(O)c1 [Compound of formula (32)]
>100 ppm: MIC values in ppm C. albicans (C. albicans) | MIC values in ppm S. aureus (S. aureus) | MIC values in ppm P. aeruginosa (P. aeruginosa) | MIC values in ppm E. coli (E. coli) | MIC values in ppm A. niger (A. niger)

CCc1csc(/C=C/c2cccc(C)c2O)n1 [Compound of formula (48)]
>100 ppm: MIC values in ppm C. albicans (C. albicans) | MIC values in ppm S. aureus (S. aureus) | MIC values in ppm P. aeruginosa (P. aeruginosa) | MIC values in ppm E. coli (E. coli) | MIC values in ppm A. niger (A. niger)

Cc1cccc(/C=C/c2nc(-c3ccc(F)cc3)cs2)c1O [Compound of formula (13)]
>100 ppm: MIC values in ppm C. albicans (C. albicans) | MIC values in ppm S. aureus (S. aureus) | MIC values in ppm P. aeruginosa (P. aeruginosa) | MIC values in ppm E. coli (E. coli) | MIC values in ppm A. niger (A. niger)

COc1ccc(/C=C/c2nc(-c3ccc(F)cc3)cs2)c(O)c1 [Compound of formula (9)]
>100 ppm: MIC values in ppm C. albicans (C. albicans) | MIC values in ppm S. aureus (S. aureus) | MIC values in ppm P. aeruginosa (P. aeruginosa) | MIC values in ppm E. coli (E. coli) | MIC values in ppm A. niger (A. niger)

CCc1csc(/C=C/c2ccc(O)c(OC)c2)n1 [Compound of formula (43)]
>100 ppm: MIC values in ppm C. albicans (C. albicans) | MIC values in ppm S. aureus (S. aureus) | MIC values in ppm P. aeruginosa (P. aeruginosa) | MIC values in ppm E. coli (E. coli) | MIC values in ppm A. niger (A. niger)

Oc1cccc(/C=C/c2nc(-c3ccc(N4CCCC4)cc3)cs2)c1 [Compound of formula (28)]
>100 ppm: MIC values in ppm C. albicans (C. albicans) | MIC values in ppm S. aureus (S. aureus) | MIC values in ppm P. aeruginosa (P. aeruginosa) | MIC values in ppm E. coli (E. coli) | MIC values in ppm A. niger (A. niger)

COc1cc(/C=C/c2nc(-c3ccc(F)cc3)cs2)cc(O)c1OC [Compound of formula (11)]
>100 ppm: MIC values in ppm C. albicans (C. albicans) | MIC values in ppm S. aureus (S. aureus) | MIC values in ppm P. aeruginosa (P. aeruginosa) | MIC values in ppm E. coli (E. coli) | MIC values in ppm A. niger (A. niger)
